Reference: paper PMC6592956, “Characterization of Porcine Hepatic and Intestinal Drug Metabolizing CYP450: Comparison with Human Orthologues from A Quantitative, Activity and Selectivity Perspective” (Scientific Reports, 2019)
Marks after values point to notes of the source that are not given here.

Assays:
[1] = tested on: porcine CYP450; settings: outcome of general decision tree, Figure 4
[2] = tested on: porcine intestinal CYP450 enzymes; settings: duodenum, jejunum, ileum
Description: (§1) Intestinal microsomes were incubated as described above for hepatic microsomes. […] Each activity measurement (hepatic and intestinal) was performed in triplicate and data are present [...

[3] = tested on: hepatic CYP450 abundancies; assay: Pearson correlation between hepatic CYP450 abundancies and probe activities
[4] = tested on: porcine intestinal CYP450 enzymes; assay: in vitro; settings: pig
Description: as §1

[5] = tested on: CYP1A; settings: n = 8
Description: (§2) The incubation times were derived from linearity experiments. […] Protein concentrations and time were chosen at the lowest possible value to allow reliable quantification, within the linear range of the biotransformation reaction.
(§3) The activity data were fitted against the standard Michaelis-Menten equation (Eq. (1a), first term). For each profile, Eadie-Hofstee plots were derived to investigate involvement of more than one enzyme or deviation from normal Michaelis-Menten behaviour. If the Eadie-Hofstee plot was hyperbolic, the data was fitted against the Hill equation[60]. Km, Vmax and/or Hill coefficients were derived for each substrate and pig, in order to obtain the inter-individual variation.
(§4) Stepwise linear regression, correlation analyses, and independent sample t-tests were performed with the SPSS® 24 software (IBM, New York, USA). Sex differences in hepatic protein abundances, Km, and Vmax values, were analyzed by an independent sample t-test. Normality was checked using the Shapiro Wilk test. If the Shapiro Wilk test statistic was significant, log transformation was used to calculate the t-statistic. Equality of variances was checked using the Levene’s test for equality of variances. The appropriate test statistic was used depending on the equality of variances.

[6] = tested on: CYP1A; settings: n = 8; remark: listed apart in the source
Description: as §2, §3, §4

O=c1ccc2ccccc2o1 [CM, coumarin]
Enzyme involvement: High affinity [1]: CYP2A19 | CM-hydroxylase activity in the intestine [2]: No CM-hydroxylase activity could be detected | Pearson's correlation coefficient, CM activity vs hepatic CYP2A19 abundance ([3]; level 3 (CM 2.00 µM)): 0.62 | Pearson's correlation coefficient, CM activity vs hepatic CYP2A19 abundance ([3]; level 4 (CM 5.00 µM)): 0.66* | Pearson's correlation coefficient, CM activity vs hepatic CYP2A19 abundance ([3]; level 5 (CM 20.0 µM)): 0.67* | Pearson's correlation coefficient, CM activity vs hepatic CYP2A19 abundance ([3]; level 6 (CM 100 µM)): 0.66*

COc1ccc2c(c1)[C@]13CCCC[C@@H]1[C@H](C2)N(C)CC3 [DXM, Dextromethorphan]
Enzyme involvement: High affinity [1]: CYP2D25 | Enzyme involvement: Low affinity [1]: CYP3A | Pearson's correlation coefficient, DXM activity vs hepatic CYP2C33 abundance ([3]; level 1 (DXM 0.10 µM)): 0.59 | Pearson's correlation coefficient, DXM activity vs hepatic CYP2E1 abundance ([3]; level 1 (DXM 0.10 µM)): 0.55 | Pearson's correlation coefficient, DXM activity vs hepatic CYP3A46 abundance ([3]; level 1 (DXM 0.10 µM)): 0.59 | Pearson's correlation coefficient, DXM activity vs hepatic CYP2C33 abundance ([3]; level 2 (DXM 0.50 µM)): 0.65* | Pearson's correlation coefficient, DXM activity vs hepatic CYP2D25 abundance ([3]; level 2 (DXM 0.50 µM)): 0.55 | Pearson's correlation coefficient, DXM activity vs hepatic CYP2E1 abundance ([3]; level 2 (DXM 0.50 µM)): 0.57 | Pearson's correlation coefficient, DXM activity vs hepatic CYP3A29 abundance ([3]; level 2 (DXM 0.50 µM)): 0.52 | Pearson's correlation coefficient, DXM activity vs hepatic CYP3A46 abundance ([3]; level 2 (DXM 0.50 µM)): 0.65* | Pearson's correlation coefficient, DXM activity vs hepatic CYP1A2 abundance ([3]; level 3 (DXM 1.00 µM)): 0.54 | Pearson's correlation coefficient, DXM activity vs hepatic CYP2C33 abundance ([3]; level 3 (DXM 1.00 µM)): 0.65* | Pearson's correlation coefficient, DXM activity vs hepatic CYP2D25 abundance ([3]; level 3 (DXM 1.00 µM)): 0.57 | Pearson's correlation coefficient, DXM activity vs hepatic CYP2E1 abundance ([3]; level 3 (DXM 1.00 µM)): 0.60 | Pearson's correlation coefficient, DXM activity vs hepatic CYP3A29 abundance ([3]; level 3 (DXM 1.00 µM)): 0.56 | Pearson's correlation coefficient, DXM activity vs hepatic CYP3A46 abundance ([3]; level 3 (DXM 1.00 µM)): 0.73* | Pearson's correlation coefficient, DXM activity vs hepatic CYP1A2 abundance ([3]; level 4 (DXM 5.00 µM)): 0.56 | Pearson's correlation coefficient, DXM activity vs hepatic CYP2C33 abundance ([3]; level 4 (DXM 5.00 µM)): 0.70* | Pearson's correlation coefficient, DXM activity vs hepatic CYP2D25 abundance ([3]; level 4 (DXM 5.00 µM)): 0.63* | Pearson's correlation coefficient, DXM activity vs hepatic CYP2E1 abundance ([3]; level 4 (DXM 5.00 µM)): 0.56 | Pearson's correlation coefficient, DXM activity vs hepatic CYP3A29 abundance ([3]; level 4 (DXM 5.00 µM)): 0.58 | Pearson's correlation coefficient, DXM activity vs hepatic CYP3A46 abundance ([3]; level 4 (DXM 5.00 µM)): 0.78* | Pearson's correlation coefficient, DXM activity vs hepatic CYP1A2 abundance ([3]; level 5 (DXM 20.0 µM)): 0.55 | Pearson's correlation coefficient, DXM activity vs hepatic CYP2C33 abundance ([3]; level 5 (DXM 20.0 µM)): 0.70* | Pearson's correlation coefficient, DXM activity vs hepatic CYP2D25 abundance ([3]; level 5 (DXM 20.0 µM)): 0.63* | Pearson's correlation coefficient, DXM activity vs hepatic CYP2E1 abundance ([3]; level 5 (DXM 20.0 µM)): 0.52 | Pearson's correlation coefficient, DXM activity vs hepatic CYP3A29 abundance ([3]; level 5 (DXM 20.0 µM)): 0.58 | Pearson's correlation coefficient, DXM activity vs hepatic CYP3A46 abundance ([3]; level 5 (DXM 20.0 µM)): 0.75* | Pearson's correlation coefficient, DXM activity vs hepatic CYP1A2 abundance ([3]; level 6 (DXM 100 µM)): 0.54 | Pearson's correlation coefficient, DXM activity vs hepatic CYP2C33 abundance ([3]; level 6 (DXM 100 µM)): 0.67* | Pearson's correlation coefficient, DXM activity vs hepatic CYP2D25 abundance ([3]; level 6 (DXM 100 µM)): 0.66* | Pearson's correlation coefficient, DXM activity vs hepatic CYP2E1 abundance ([3]; level 6 (DXM 100 µM)): 0.54 | Pearson's correlation coefficient, DXM activity vs hepatic CYP3A29 abundance ([3]; level 6 (DXM 100 µM)): 0.59 | Pearson's correlation coefficient, DXM activity vs hepatic CYP3A46 abundance ([3]; level 6 (DXM 100 µM)): 0.74* | Correlation (r) of CYP2D25 with DXM-O-demethylation ([3]; range over concentration levels): 0.55–0.66 | Km at 10 min ([4]; Duodenum Km, duodenal microsomes, pool of 16 pigs, n=3, mean (SD)): 31.5 µM

CCOc1ccc(NC(C)=O)cc1 [PH, Phenacetin]
Pearson's correlation coefficient, PH activity vs hepatic CYP3A46 abundance ([3]; level 6 (PH 200 µM)): 0.51 | Km at 10 min ([4]; duodenal microsomes): 144 µM | Km at 10 min ([4]; ileal microsomes): 189 µM | Km at 10 min ([4]; jejunal microsomes): 182 µM

CCOc1ccc(NC(C)=O)cc1 [PH, phenacetin]
log_Km, male [5]: 1,2876 | log_Km, female [6]: 1,1345
